Source: patent publication US5863936A, “Telomerase inhibitors” (Geron Corporation, priority 1995, dated 1999)
pIC50: −log10 of the molar value. Several values for one entry are separate records, joined by “and”; a condition that tells them apart may be missing. Equal entries are not always repeated. Where two headings read alike, the source gives them in different places.

Molecular target: T1, telomerase (Homo sapiens, UniProt O14746)
T1 construct: cells, tissues, or preferably a cellular extract or other preparation containing telomerase; endogenous in cells
Assay: Telomerase inhibition (IC50) with cellular extract or other preparation containing telomerase
Format: biochemical
Excerpt: One method used to identify compounds of the invention that inhibit telomerase activity involves placing cells, tissues, or preferably a cellular extract or other preparation containing telomerase in contact with several known concentrations of a test compound in a buffer compatible with telomerase activity. […] Other methods for determining the inhibitory concentration of a compound of the invention against telomerase can be employed as will be apparent to those of skill in the art based on the disclosure herein.
With the above-described methods, IC50 values for several of the compounds of the present invention were determined. The values reported in Table 1 below are only approximate values; more exact IC50 values can be obtained by repetitive testing.

[1] = approximate values, read-out: IC50

T1 sequence (O14746 whole entry): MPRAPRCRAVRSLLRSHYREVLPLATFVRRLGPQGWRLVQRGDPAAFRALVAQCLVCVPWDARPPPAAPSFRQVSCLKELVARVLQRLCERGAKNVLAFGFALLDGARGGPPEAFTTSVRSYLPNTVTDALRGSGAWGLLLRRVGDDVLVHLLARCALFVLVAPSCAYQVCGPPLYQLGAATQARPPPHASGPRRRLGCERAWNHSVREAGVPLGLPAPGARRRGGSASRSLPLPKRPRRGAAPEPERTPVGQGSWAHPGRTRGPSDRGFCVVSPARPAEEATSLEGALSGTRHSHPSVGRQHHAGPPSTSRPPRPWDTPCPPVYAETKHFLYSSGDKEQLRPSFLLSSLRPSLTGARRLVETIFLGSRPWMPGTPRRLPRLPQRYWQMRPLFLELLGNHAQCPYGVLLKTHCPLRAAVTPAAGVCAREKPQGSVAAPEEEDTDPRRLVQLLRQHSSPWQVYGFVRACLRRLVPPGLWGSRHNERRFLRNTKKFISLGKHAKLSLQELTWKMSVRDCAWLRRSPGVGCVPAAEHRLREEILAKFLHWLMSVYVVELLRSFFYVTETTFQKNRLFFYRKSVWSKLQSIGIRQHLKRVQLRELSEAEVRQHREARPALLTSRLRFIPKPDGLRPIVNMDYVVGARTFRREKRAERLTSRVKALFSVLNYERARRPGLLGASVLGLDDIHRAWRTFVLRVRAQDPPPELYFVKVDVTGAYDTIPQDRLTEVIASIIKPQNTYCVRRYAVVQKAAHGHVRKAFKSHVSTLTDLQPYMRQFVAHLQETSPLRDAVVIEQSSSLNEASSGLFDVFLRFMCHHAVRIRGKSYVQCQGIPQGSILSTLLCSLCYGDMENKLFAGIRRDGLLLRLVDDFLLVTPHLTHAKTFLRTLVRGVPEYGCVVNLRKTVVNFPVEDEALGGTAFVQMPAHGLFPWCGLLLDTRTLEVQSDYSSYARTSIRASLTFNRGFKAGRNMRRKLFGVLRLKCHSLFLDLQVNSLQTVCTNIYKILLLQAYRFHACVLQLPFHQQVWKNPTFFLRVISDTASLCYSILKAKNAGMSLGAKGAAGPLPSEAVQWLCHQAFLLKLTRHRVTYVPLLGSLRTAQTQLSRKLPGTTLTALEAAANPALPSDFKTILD
T1 sequence (O60832 whole entry partner): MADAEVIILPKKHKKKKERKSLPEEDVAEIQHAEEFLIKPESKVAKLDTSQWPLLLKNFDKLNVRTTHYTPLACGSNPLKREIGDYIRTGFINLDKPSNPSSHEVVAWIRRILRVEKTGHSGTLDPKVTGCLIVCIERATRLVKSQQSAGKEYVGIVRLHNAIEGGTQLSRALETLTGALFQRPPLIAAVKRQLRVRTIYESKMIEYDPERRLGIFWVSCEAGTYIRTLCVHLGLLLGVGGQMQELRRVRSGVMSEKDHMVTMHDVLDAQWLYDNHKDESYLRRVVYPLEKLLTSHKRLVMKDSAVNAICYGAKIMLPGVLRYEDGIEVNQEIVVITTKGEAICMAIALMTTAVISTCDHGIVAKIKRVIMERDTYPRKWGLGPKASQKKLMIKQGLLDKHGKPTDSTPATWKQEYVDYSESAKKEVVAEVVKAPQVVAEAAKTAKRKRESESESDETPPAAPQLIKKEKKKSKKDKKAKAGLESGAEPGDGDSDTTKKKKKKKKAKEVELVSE
T1 sequence (Q9NPE3 whole entry partner): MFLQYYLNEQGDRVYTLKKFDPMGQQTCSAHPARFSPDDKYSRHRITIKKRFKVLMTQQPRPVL
T1 sequence (Q9NX24 whole entry partner): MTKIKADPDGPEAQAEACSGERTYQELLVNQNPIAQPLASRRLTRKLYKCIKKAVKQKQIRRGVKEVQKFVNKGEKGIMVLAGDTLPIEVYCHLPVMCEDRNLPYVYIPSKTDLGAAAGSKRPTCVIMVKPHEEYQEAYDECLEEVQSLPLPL
T1 sequence (Q9NY12 whole entry partner): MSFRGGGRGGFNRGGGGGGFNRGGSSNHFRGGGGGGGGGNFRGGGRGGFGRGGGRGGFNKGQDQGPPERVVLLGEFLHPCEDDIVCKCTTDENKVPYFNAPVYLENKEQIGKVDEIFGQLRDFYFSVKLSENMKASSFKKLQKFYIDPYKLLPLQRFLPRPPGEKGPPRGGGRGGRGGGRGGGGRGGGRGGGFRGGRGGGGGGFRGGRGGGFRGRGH

SMILES	anti-telomerase activity (in words)	pIC50 [1]	pIC50 (IC50, approximate values)
Cc1ccc(Sc2ccccc2NC(=S)NNC(=O)c2cc3cc(NC(=S)Nc4ccccc4Sc4ccc(C)cc4)ccc3s2)cc1 [Compound III]	useful telomerase-inhibiting properties	4.92	–
Cc1ccc(NC(=S)Nc2ccc3sc(C(=O)NNC(=S)Nc4cc(Cl)ccc4Cl)cc3c2)cc1 [Compound II]	good anti-telomerase activity	5.22	–
Cc1cccc(NC(=S)Nc2ccc3sc(C(=O)NNC(=S)Nc4cc(C(F)(F)F)cc(C(F)(F)F)c4)cc3c2)c1 [Compound IV]	useful telomerase-inhibiting properties	4.63	–
O=C(NNC(=S)Nc1cc(Cl)ccc1Cl)c1cc2ccccc2s1 [Compound VII]	–	5.00	–
CSc1ccc(NC(=S)NNC(=O)c2cc3cc(NC(=S)Nc4cccc(C)c4)ccc3s2)cc1 [Compound VI]	useful telomerase-inhibiting properties	5.19	–
Cc1ccc(Sc2ccccc2NC(=S)NNC(=O)c2cc3cc(NC(=S)Nc4cccc(C)c4)ccc3s2)cc1 [Compound V]	useful telomerase-inhibiting properties	5.01	–
O=C(NNC(=S)Nc1cc(Br)ccc1Br)c1cc2c(Cl)cccc2s1 [Compound XIII]	–	5.05	–
O=C(NNC(=S)Nc1cc(Cl)c(Cl)c(Cl)c1Cl)c1cc2c(Cl)cccc2s1 [Compound XII]	–	5.15	–
O=C(NNC(=S)Nc1ccc(Cl)c(Cl)c1Cl)c1cc2c(Cl)cccc2s1 [Compound XIV]	–	5.05	–
O=C(NNC(=S)Nc1cc(Cl)c(Cl)c(Cl)c1Cl)c1sc2ccccc2c1Cl [Compound XIX]	useful anti-telomerase properties	5.10	–
O=C(NNC(=S)Nc1cc(Cl)c(Cl)cc1Cl)c1cc2c(Cl)cccc2s1 [Compound XI]	–	5.00	–
O=C(NNC(=S)Nc1ccc(Cl)cc1)c1sc2ccc(Cl)c(Cl)c2c1Cl [Compound XLI]	–	5.10	–
O=C(NNC(=S)Nc1c(Cl)cc(Cl)cc1Cl)c1sc2ccc(Cl)c(Cl)c2c1Cl [Compound XL]	–	4.85	–
COc1ccc2c(Cl)c(C(=O)NNC(=S)Nc3cc(Cl)c(Cl)c(Cl)c3Cl)sc2c1Cl [Compound XVIII]	–	4.82	–
COc1ccc2c(Cl)c(C(=O)NNC(=S)Nc3cc(Cl)c(Cl)cc3Cl)sc2c1Cl [Compound XVII]	–	5.05	–
O=C(NNC(=S)Nc1ccc(Sc2ccc([N+](=O)[O-])cc2)cc1)c1cc2c(F)cccc2s1 [Compound XVI]	–	5.22	–
Cc1ccc(Sc2ccccc2NC(=S)NNC(=O)c2cc3c(Cl)cccc3s2)cc1 [Compound XV]	–	5.05	–
Cc1ccc2c(Cl)c(C(=O)NNC(=S)Nc3cccc(Cl)c3Cl)sc2c1 [Compound XXIII]	–	5.00	–
COc1ccc2c(Cl)c(C(=O)NNC(=S)Nc3ccc(Cl)c(Cl)c3Cl)sc2c1 [Compound XXII]	useful telomerase-inhibiting properties	5.10	–
O=C(NNC(=S)Nc1cc(Cl)c(Cl)cc1Cl)c1sc2cc(-c3ccccc3)ccc2c1Cl [Compound XXIV]	–	5.10	–

SMILES	anti-telomerase activity (in words)	pIC50 [1]	pIC50 (IC50, approximate values)
O=C(NNC(=S)Nc1c(Cl)cc(Cl)cc1Cl)c1sc2cc(-c3ccccc3)ccc2c1Cl [Compound XXIX]	–	5.15	–
COc1ccc2c(Cl)c(C(=O)NNC(=S)Nc3cc(Cl)c(Cl)c(Cl)c3Cl)sc2c1 [Compound XXI]	useful telomerase-inhibiting properties	5.30	–
O=C(NNC(=S)Nc1cc(Br)ccc1Br)c1sc2cc(-c3ccccc3)ccc2c1Cl [Compound XXVIII]	–	5.05	–
O=C(NNC(=S)Nc1cc(Cl)ccc1Cl)c1sc2cc(-c3ccccc3)ccc2c1Cl [Compound XXVII]	–	5.22	–
O=C(NNC(=S)Nc1cccc(Cl)c1Cl)c1sc2cc(-c3ccccc3)ccc2c1Cl [Compound XXVI]	–	5.22	–
O=C(NNC(=S)Nc1cc(Cl)c(Cl)c(Cl)c1Cl)c1sc2cc(-c3ccccc3)ccc2c1Cl [Compound XXV]	–	5.00	–
O=C(NNC(=S)Nc1cc(Cl)ccc1Cl)c1sc2ccc(Cl)c(Cl)c2c1Cl [Compound XXXIII]	–	5.15	–
O=C(NNC(=S)Nc1ccc(Cl)cc1Cl)c1sc2ccc(Cl)c(Cl)c2c1Cl [Compound XXXII]	–	5.15	–
O=C(NNC(=S)Nc1ccc(Cl)c(Cl)c1Cl)c1sc2ccc(Cl)c(Cl)c2c1Cl [Compound XXXIV]	–	5.22	–
O=C(NNC(=S)Nc1cc(Cl)c(Cl)cc1Cl)c1sc2ccc(Cl)c(Cl)c2c1Cl [Compound XXXIX]	–	5.30 and ≥ 5.30	–
O=C(NNC(=S)Nc1cccc(Cl)c1Cl)c1sc2ccc(Cl)c(Cl)c2c1Cl [Compound XXXI]	–	5.30 and ≥ 5.30	–
O=C(NNC(=S)Nc1ccc2ccccc2c1)c1sc2ccc(Cl)c(Cl)c2c1Cl [Compound XXXVIII]	–	5.30 and ≥ 5.30	–
Cc1ccc(Sc2ccccc2NC(=S)NNC(=O)c2sc3ccc(Cl)c(Cl)c3c2Cl)cc1 [Compound XXXVII]	–	5.15	–
O=C(NNC(=S)Nc1cc(C(F)(F)F)cc(C(F)(F)F)c1)c1sc2ccc(Cl)c(Cl)c2c1Cl [Compound XXXVI]	–	5.10	–
O=C(NNC(=S)Nc1cc(Br)ccc1Br)c1sc2ccc(Cl)c(Cl)c2c1Cl [Compound XXXV]	–	5.22	–
O=C(NNC(=S)Nc1cc(Cl)c(Cl)c(Cl)c1Cl)c1sc2ccc(Cl)c(Cl)c2c1Cl [Compound XXX]	–	5.30 and ≥ 5.30	–
COc1ccc2c(Cl)c(C(=O)NNC(=S)Nc3cc(Cl)c(Cl)cc3Cl)sc2c1 [Compound XX]	useful telomerase-inhibiting properties	5.05	–
Cc1ccc(Sc2ccccc2NC(=S)NNC(=O)c2cc3cccc(F)c3s2)cc1 [Compound X]	–	5.22	–
O=C(NNC(=S)Nc1cc(Cl)c(Cl)c(Cl)c1Cl)c1cc2cccc(F)c2s1 [IX]	–	5.30 and ≥ 5.30	–
O=C(NNC(=S)Nc1cc(Cl)c(Cl)cc1Cl)c1cc2cccc(F)c2s1 [VIII]	–	–	5.15
